Test results reported in ChEMBL document CHEMBL1201862, “PubChem BioAssay data set” (2004).
Activity calls are given as the source filed them.

Assays:
HeLa = experiment: ATP-based viability loss in HeLa cells – cell-based, CellTiter-Glo luminescence, cherry-pick samples, cytotoxicity control for MITF activator project, dose response (AID 540259); format: functional; conditions: Homo sapiens
Cytochrome P450 2C9 = Cytochrome P450 2C9 (Homo sapiens, UniProt P11712)
Cytochrome P450 3A4 [1] = biological target: T1, Cytochrome P450 3A4 (Homo sapiens, UniProt P08684);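 note: CYP3A4 tested as one member of a cytochrome P450 panel screen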
T1 sequence (P08684 whole entry): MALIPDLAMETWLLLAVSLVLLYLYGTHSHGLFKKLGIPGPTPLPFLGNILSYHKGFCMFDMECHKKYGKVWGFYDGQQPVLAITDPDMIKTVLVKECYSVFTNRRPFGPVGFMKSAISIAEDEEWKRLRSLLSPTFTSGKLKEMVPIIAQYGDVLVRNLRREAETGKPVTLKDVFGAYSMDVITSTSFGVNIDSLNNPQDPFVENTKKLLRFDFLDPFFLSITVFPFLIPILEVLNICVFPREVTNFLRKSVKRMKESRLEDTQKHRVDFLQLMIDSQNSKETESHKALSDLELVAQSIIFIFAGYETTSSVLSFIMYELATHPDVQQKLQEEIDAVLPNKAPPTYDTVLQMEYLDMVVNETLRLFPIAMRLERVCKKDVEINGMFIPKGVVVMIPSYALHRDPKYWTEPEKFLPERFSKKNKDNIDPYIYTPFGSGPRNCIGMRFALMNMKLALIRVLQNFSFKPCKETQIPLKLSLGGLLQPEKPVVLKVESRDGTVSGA

[2] = biological target: T2, Ubiquitin-conjugating enzyme E2 N (Homo sapiens, UniProt P61088); format: functional
T2 sequence (P61088 whole entry): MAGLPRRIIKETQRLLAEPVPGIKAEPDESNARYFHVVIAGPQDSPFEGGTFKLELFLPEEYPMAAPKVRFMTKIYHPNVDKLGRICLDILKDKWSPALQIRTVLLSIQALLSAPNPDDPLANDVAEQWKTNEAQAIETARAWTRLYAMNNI

[3] = biological target: Peroxisome proliferator-activated receptor gamma/Nuclear receptor coactivator 3 (Homo sapiens, UniProt P37231); experiment: (§1) TR-FRET dose response biochemical High Throughput Screening assay for agonists of the steroid receptor coactivator 3 (SRC-3) recruitment by the peroxisome proliferator-activated receptor gamma (PPAR gamma): non-selective agonists. [Related pubchem assays: 1301 (Confirmation screen.), 1048 (Primary screen.)]; format: functional
[4] = biological target: Peroxisome proliferator-activated receptor gamma/Nuclear receptor coactivator 1 (Homo sapiens, UniProt P37231); experiment: as §1, with “1 (SRC-1)” for “3 (SRC-3)”, “assays (depositor defined):AID1300, AID1808, AID504735, AID631]” for “assays: 1301 (Confirmation screen.), 1048 (Primary screen.)]”; format: protein assay
Chain of Peroxisome proliferator-activated receptor gamma/Nuclear receptor coactivator 1 (P37231 whole entry): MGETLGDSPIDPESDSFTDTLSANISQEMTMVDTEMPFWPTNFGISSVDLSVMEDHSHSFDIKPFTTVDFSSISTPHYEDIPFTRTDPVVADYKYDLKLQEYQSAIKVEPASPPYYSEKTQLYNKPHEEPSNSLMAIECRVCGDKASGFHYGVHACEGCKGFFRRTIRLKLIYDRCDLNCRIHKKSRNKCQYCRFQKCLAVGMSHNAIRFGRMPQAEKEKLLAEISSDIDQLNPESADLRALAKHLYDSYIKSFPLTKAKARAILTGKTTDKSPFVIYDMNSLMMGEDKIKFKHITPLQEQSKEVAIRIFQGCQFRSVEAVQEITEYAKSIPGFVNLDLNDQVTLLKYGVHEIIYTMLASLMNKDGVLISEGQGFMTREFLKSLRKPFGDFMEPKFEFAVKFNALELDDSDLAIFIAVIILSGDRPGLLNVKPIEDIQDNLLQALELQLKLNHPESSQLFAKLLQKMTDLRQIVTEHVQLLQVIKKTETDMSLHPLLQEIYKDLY
Chain of Peroxisome proliferator-activated receptor gamma/Nuclear receptor coactivator 1 (Q15788 whole entry, further chain): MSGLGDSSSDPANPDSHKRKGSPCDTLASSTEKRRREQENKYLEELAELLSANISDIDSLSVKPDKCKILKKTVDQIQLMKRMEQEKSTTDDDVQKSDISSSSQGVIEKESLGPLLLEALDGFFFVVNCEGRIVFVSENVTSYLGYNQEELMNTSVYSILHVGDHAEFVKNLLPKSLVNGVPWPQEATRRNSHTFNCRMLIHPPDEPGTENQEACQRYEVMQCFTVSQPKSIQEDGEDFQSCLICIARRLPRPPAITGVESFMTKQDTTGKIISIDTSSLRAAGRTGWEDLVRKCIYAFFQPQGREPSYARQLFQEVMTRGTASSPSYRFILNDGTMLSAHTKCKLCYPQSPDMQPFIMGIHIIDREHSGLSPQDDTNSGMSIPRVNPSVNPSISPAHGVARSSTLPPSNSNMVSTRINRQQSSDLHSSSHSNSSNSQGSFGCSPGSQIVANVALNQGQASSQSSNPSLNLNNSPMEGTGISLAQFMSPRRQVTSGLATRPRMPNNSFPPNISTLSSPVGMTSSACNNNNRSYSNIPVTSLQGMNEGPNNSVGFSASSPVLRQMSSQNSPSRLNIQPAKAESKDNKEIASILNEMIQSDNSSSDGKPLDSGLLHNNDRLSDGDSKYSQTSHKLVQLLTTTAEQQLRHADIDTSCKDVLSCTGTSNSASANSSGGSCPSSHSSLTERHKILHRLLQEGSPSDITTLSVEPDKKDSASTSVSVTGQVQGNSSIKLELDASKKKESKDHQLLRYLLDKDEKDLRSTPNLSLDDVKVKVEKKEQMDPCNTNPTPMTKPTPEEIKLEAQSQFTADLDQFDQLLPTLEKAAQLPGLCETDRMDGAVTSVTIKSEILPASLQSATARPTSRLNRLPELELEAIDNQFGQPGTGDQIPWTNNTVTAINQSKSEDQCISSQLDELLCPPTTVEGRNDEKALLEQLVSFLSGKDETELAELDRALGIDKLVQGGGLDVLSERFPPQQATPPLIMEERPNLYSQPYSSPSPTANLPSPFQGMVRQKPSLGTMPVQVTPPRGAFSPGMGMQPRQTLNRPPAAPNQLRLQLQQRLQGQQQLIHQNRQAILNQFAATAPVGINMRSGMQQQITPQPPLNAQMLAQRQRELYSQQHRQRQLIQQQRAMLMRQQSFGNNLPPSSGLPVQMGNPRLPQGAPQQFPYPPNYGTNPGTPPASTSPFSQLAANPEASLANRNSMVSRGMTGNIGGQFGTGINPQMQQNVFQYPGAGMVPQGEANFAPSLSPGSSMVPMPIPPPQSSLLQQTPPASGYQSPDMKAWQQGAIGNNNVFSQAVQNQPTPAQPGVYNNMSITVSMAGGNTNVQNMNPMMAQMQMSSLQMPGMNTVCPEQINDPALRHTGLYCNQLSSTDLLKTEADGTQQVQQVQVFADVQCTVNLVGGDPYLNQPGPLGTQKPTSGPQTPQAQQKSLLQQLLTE

[5] = biological target: Peroxisome proliferator-activated receptor gamma/Nuclear receptor coactivator 2 (Homo sapiens, UniProt P37231); experiment: TR-FRET dose response biochemical High Throughput Screening assay for agonists of the steroid receptor coactivator 2 (SRC-2) recruitment by the peroxisome proliferator-activated receptor gamma (PPAR gamma): non-selective agonists. [Related pubchem assays: 1297, 1032 ]; format: functional
[6] = biological target: T2, Ubiquitin-conjugating enzyme E2 N; format: functional; remark: listed apart in the source
Bcl-2-related protein A1 = biological target: T3, Bcl-2-related protein A1 (Mus musculus, UniProt Q07440); format: functional;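 note: confirmatory dose–response counterscreen on Bfl-1, used to check hits from a UBC13 polyubiquitin inhibitor campaign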
T3 sequence (Q07440 whole entry): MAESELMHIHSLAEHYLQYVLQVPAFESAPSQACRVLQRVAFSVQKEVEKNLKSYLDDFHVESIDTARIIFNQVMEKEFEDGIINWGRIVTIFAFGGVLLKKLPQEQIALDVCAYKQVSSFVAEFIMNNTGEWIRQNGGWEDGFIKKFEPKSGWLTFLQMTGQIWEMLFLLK

Escherichia coli = experiment: microbe, parasite or virus in culture
[7] = biological target: T4, Rac GTPase-activating protein 1 (Homo sapiens, UniProt Q9H0H5); experiment: blockers of MgcRacGAP-driven Rac1 GTP hydrolysis – biochemical, ADP Hunter fluorescence, primary and confirmatory, confirmation (AID 624330); format: functional
T4 sequence (Q9H0H5 whole entry): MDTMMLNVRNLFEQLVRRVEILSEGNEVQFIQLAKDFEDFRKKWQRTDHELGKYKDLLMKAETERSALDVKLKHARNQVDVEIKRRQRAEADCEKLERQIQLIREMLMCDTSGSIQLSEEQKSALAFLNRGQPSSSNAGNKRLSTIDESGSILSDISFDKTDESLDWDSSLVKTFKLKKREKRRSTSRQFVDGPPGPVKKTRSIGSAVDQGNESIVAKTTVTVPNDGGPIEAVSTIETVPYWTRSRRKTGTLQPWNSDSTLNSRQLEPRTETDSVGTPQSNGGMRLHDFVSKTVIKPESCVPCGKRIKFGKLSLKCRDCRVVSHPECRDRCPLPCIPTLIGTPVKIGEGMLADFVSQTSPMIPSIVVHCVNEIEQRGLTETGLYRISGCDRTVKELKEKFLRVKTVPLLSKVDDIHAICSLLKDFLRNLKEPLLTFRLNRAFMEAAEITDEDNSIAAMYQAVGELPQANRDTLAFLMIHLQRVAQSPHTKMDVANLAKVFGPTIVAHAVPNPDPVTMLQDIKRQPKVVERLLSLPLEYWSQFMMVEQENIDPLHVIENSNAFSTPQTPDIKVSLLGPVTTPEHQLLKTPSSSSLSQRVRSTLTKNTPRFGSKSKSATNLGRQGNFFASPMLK

[8] = Luminescence Cell-Based Dose Retest to Confirm Inhibitors of Cancer Stem Cells. [Related pubchem assays (depositor defined):AID2717, AID2721]; format: functional; conditions: Homo sapiens
[9] = viability loss of HMLE_sh_eGFP cells – cell-based, luminescence, counter-screen for HMLE_sh_ECad selective toxicity project, dose response (AID 463074); format: functional, Homo sapiens;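 note: HMLE human mammary epithelial cells expressing control shRNA against eGFP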
Cytochrome P450 2D6 = Cytochrome P450 2D6 (Homo sapiens, UniProt P10635);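 note: CYP2D6 member of a cytochrome P450 panel assay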
Chain of Cytochrome P450 2D6 (P10635 whole entry): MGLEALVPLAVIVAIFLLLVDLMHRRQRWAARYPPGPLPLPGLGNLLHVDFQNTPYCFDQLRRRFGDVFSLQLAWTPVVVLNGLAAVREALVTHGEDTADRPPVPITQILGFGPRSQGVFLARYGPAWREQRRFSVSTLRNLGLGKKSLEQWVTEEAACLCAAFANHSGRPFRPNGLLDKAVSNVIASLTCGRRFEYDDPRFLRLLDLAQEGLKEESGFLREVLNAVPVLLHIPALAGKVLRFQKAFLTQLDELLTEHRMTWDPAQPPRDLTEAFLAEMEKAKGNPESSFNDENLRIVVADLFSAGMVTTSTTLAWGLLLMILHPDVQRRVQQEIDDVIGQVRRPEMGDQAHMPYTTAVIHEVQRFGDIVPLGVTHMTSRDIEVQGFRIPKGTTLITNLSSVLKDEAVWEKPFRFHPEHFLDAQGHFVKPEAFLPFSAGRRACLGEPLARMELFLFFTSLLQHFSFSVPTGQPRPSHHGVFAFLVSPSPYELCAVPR

Cytochrome P450 3A4 [10] = biological target: T1, Cytochrome P450 3A4; remark: listed apart in the source
Protein Wnt-3a = Protein Wnt-3a (Mus musculus, UniProt P27467); experiment: antagonism of Wnt3a pathway luciferase reporter – Wnt-LIGHT cells, luminescence, selectivity assay for Gli-SUFU antagonist project, dose response (AID 651570); format: functional; conditions: read-out: IC50_Mean;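 note: Wnt-LIGHT reporter cells stimulated with conditioned medium from Wnt3a-producing cells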
Chain of Protein Wnt-3a (P27467 whole entry): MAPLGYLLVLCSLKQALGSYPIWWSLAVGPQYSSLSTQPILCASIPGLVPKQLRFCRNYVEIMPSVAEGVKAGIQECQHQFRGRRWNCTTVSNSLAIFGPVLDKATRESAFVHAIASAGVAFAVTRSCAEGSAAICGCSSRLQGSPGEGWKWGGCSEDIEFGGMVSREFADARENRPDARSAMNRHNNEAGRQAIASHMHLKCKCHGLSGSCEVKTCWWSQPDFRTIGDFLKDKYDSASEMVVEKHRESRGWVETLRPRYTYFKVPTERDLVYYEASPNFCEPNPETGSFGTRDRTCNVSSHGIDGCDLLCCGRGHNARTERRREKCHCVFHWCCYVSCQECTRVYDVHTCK

[11] = Trypanosoma cruzi growth suppression in host cells – NIH3T3 host cells, beta-gal luminescence, confirmation (AID 2044); format: functional, cell-based;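 note: intracellular parasites grown in NIH/3T3 mouse fibroblasts as host cells; luminescent beta-galactosidase reporter signal from transgenic T. cruzi replicating inside host cells; inhibitors lower the luminescence signal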
[12] = biological target: T5, Mannose-6-phosphate isomerase (Homo sapiens, UniProt P34949); experiment: MPI enzyme activity inhibition – biochemical, fluorescence intensity, coupled assay, primary screen (AID 1209)
T5 sequence (P34949 whole entry): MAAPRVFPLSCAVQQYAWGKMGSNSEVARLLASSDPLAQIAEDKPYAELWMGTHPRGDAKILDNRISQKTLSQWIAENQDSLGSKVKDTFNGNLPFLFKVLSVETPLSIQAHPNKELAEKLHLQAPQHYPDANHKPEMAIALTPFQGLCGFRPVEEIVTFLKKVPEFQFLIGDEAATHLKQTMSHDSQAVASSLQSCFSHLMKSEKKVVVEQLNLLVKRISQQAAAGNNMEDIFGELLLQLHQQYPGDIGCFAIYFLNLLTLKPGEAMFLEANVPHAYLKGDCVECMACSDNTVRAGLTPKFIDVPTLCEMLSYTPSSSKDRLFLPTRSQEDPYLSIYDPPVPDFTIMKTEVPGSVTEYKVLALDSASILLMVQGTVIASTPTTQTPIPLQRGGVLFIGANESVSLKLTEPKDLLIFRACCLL

INS1 = experiment: INS-1E survival protection against cytokine death – cell-based, luminescence, retest, dose response (AID 449756); format: functional; conditions: Rattus norvegicus;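 note: cell death triggered by IL-1 beta plus TNF-alpha plus IFN-gamma mixture; protective hits raise ATP signal compared with cytokine alone wells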
[13] = NIH3T3 cell viability loss – ATP luminescence, mouse fibroblasts, counter-screen, dose response (AID 2010); format: functional, cell-based;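 note: cells exposed to compound for about 90 hours before reading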

Chain of Cytochrome P450 2C9 (P11712 whole entry): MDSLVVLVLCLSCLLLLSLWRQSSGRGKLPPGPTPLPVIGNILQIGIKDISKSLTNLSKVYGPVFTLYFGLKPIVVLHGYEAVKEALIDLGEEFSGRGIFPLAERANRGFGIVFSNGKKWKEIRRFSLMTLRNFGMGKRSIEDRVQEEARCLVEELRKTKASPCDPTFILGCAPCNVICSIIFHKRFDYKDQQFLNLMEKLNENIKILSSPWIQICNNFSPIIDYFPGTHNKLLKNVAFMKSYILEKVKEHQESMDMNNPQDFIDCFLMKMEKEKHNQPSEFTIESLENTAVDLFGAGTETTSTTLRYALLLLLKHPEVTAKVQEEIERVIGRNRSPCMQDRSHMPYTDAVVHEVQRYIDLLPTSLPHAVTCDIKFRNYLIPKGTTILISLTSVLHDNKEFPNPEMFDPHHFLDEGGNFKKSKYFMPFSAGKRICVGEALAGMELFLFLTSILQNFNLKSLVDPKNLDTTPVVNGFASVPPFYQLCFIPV

**Q.** Which AC50 (HeLa) does the source give for `Cc1ccc(C(=O)NCCc2ccc(F)cc2)s1` here?
**A.** 43.2 µM (active)

**Q.** Which results are given for `COC(=O)c1cc(C(=O)c2cccc(Cl)c2Cl)cn1C`?
**A.** AC50 (Cytochrome P450 2C9): inconclusive; AC50 (Cytochrome P450 3A4 [1]): inconclusive

**Q.** Which IC50 [2] does the source give for `CCn1c(=O)cc(SCC(=O)NCCCN2CCN(c3ccc(F)cc3)CC2)c2ccccc21` here?
**A.** 4.95 µM (active)

**Q.** What about the EC50 [3] of the same molecule?
**A.** > 79.4 µM (not active)

**Q.** What about the EC50 [4] of the same molecule?
**A.** > 79.4 µM (inactive)

**Q.** And the EC50 [5]?
**A.** > 79.4 µM (not active)

**Q.** And the IC50 [6]?
**A.** 5.57 µM (active)

**Q.** And the IC50 (Bcl-2-related protein A1)?
**A.** > 20 µM (inactive)

**Q.** For `Cn1cccc1C(=O)N1CCC2(CC1)CCN(c1ncccn1)CC2`, which AC50 (Cytochrome P450 3A4 [1]) is on record?
**A.** inconclusive

**Q.** What does the source list for `C(=N\Nc1ccccn1)/c1ccc(N2CCOCC2)cc1`?
**A.** AC50 (Escherichia coli): 62 µM (active); IC50 [7]: 134 µM (active)

**Q.** For `Cn1c(=O)c(-c2ccc(F)cc2)nc2cnc(N3CCOCC3)nc21`, which AC50 (Cytochrome P450 3A4 [1]) is on record?
**A.** inconclusive

**Q.** Which AC50 (HeLa) does the source give for `CCc1ccc(O)c(-c2cc(C(=O)Nc3cccnc3)[nH]n2)c1` here?
**A.** > 350 µM (inactive)

**Q.** For `CCCCCOc1ccc(OC(=O)c2ccncc2)cc1`, which AC50 [8] is on record?
**A.** 7.57 µM (active)

**Q.** What about the AC50 [9] of the same molecule?
**A.** 21.2 µM (active)

**Q.** And the AC50 (Cytochrome P450 2D6)?
**A.** 3.98 µM (inconclusive)

**Q.** What about the AC50 (Cytochrome P450 3A4 [10]) of the same molecule?
**A.** 25.1 µM (inconclusive)

**Q.** With `NC(=O)CC(NC(=O)Cc1cccc2ccccc12)c1ccc(NC2CCCCC2)c([N+](=O)[O-])c1` (configuration not stated) as the molecule, how does the AC50 [8] read?
**A.** 5.79 µM (active)

**Q.** What about the AC50 [9] of the same molecule?
**A.** 27.9 µM (active)

**Q.** With `CC[N+]1=C(C)C(C)(C)c2cc(C)ccc21` as the molecule, how does the IC50 (Protein Wnt-3a) read?
**A.** 0.892 µM (active)

**Q.** What about the AC50 [8] of the same molecule?
**A.** 24 µM (active)

**Q.** What about the AC50 [9] of the same molecule?
**A.** 64.4 µM (active)

**Q.** What about the EC50 [11] of the same molecule?
**A.** 1.49 µM (active)

**Q.** What about the IC50 [12] of the same molecule?
**A.** > 50 µM (not active)

**Q.** And the AC50 (INS1)?
**A.** 5.84 µM (active)

**Q.** And the EC50 [13]?
**A.** > 60 µM (not active)
